Test results from PMC7898822, “RNA‐PROTACs: Degraders of RNA‐Binding Proteins” (Angewandte Chemie (International Ed. in English), 2020).

Legend:
myc-Lin28A = assay: Ubiquitination assay of myc-Lin28A in 22Rv1 cells; format: cell-based; settings: HA-Ub co-transfected, 500 nM, 48 h, anti-HA western blot after cMyc IP
Method: Next, we investigated the ability of ORN3P1 and ORN7P1 to mediate ubiquitination of Lin28 in cells, using a previously described protocol. ^[32] Cells from the prostate cancer cell line 22RV1, which express very low levels of Lin28, were co‐transfected with two plasmids expressing pCMV‐myc‐Lin28A and HA‐tagged polyubiquitin (HA‐Ub).
After 48 h of incubation with ORN3P1 and ORN7P1, the tagged Lin28 (and the control QKI) was immunoprecipitated using an anti‐Myc antibody. The isolated protein was then analyzed by western blotting using the anti‐HA and anti‐c‐Myc antibodies. Consistent with other previously described PROTAC reagents,[ ^32 , ^33 ]
The protein extracts (12-17 µg) were run on a 4-20% SDS-PAGE and transferred on a nitrocellulose blotting membrane 0.22 µm (GE Healthcare) using the Trans-Blot transfer device (Biorad). Membranes were blocked with 5% milk and incubated with the primary antibody overnight at 4 °C. Membranes were washed with 0.05% PBS-T and reacted with the secondary antibody for 1 h in 5% milk. The proteins were detected using the anti-lin28a antibody (Cell Signaling technology, D9F5), anti-lin28b antibody (Cell Signaling technology, 4196S), anti-rbfox1 (NovusBio, NBP2-13169SS), at 1:1000 and anti-hrnp c antibody […]
(Abcam, AB133607) at 1:10000 dilutions. […]
on a ChemiDoc MP imager (Biorad). The intensity of the signal was quantified using the ImageJ-Fiji software. […]

Lin28A = assay: Western blot of Lin28A in K562 cells; format: cell-based, human
From the text: Finally, we tested RNA‐PROTACs for their ability to degrade their target in two cell lines: the embryonic NT2/D1 cell line, which expresses high levels of Lin28A, ^[13a] and K562 cells which express Lin28A and Lin28B. […] Finally, we co‐treated K562 cells with ORN3P1 and MG132, a reversible inhibitor of the 26S proteasome. […] In order to explore the versatility of RNA‐PROTACs with non peptide‐based VHL ligands, we conjugated small‐molecule VH032 ^[38] to ORN3 via an amino linker to yield ORN3VH032 (Figure S1). […]

## CC[C@H](C)[C@H](NC(=O)[C@H](Cc1ccc(O)cc1)NC(=O)[C@@H]1C[C@@H](O)CN1C(=O)[C@H](C)NC(=O)[C@H](CC(C)C)NC(=O)CCCCCNC(=O)[C@@H](N)CSC1CC(=O)N(CCOP(=O)(S)OC[C@H]2O[C@@H](n3cnc4c(N)ncnc43)[C@H](OCCOC)[C@@H]2OP(=O)(S)OC[C@H]2O[C@@H](n3cnc4c(=O)[nH]c(N)nc43)[C@H](OCCOC)[C@@H]2OP(=O)(S)OC[C@H]2O[C@@H](n3cnc4c(=O)[nH]c(N)nc43)[C@H](OCCOC)[C@@H]2OP(=O)(S)OC[C@H]2O[C@@H](n3cnc4c(N)ncnc43)[C@H](OCCOC)[C@@H]2OP(=O)(S)OC[C@H]2O[C@@H](n3cnc4c(=O)[nH]c(N)nc43)[C@H](OCCOC)[C@@H]2OP(=O)(S)OC[C@H]2O[C@@H](n3cnc4c(N)ncnc43)[C@H](OCCOC)[C@@H]2OP(=O)(S)OC[C@H]2O[C@@H](n3cc(C)c(=O)[nH]c3=O)[C@H](OCCOC)[C@@H]2O)C1=O)C(=O)O (stereo partly drawn) [ORN3P1]
myc-Lin28A
  ubiquitination of myc-Lin28A: showed a smear on the gel towards higher molecular weight
Lin28A; K562 cells co-treated with 100 nM MG132, 48 h
  Lin28A suppression with MG132 co-treatment: largely attenuated Lin28A suppression
Lin28A; K562 cells, highest concentration, 48 h, western blot, three independent experiments
  suppression of Lin28A: 50%
